{
  "source": "patent US7482340B2",
  "about": "“Pyridine derivatives useful for inhibiting sodium/calcium exchange system” (Orion Corporation, priority 2003, dated 2009)",
  "tested_on": "guinea-pig papillary muscles",
  "assay": "Inhibition of ouabain-induced arrhythmias (aftercontractions) in guinea-pig papillary muscles",
  "settings": "10 μM concentration; guinea-pig papillary muscle paced at 1 Hz, 37° C.",
  "experimental": "The effects of the compounds of the invention were tested on ouabain-induced arrhythmias in guinea-pig papillary muscles.\nGuinea-pig papillary muscles were mounted into horizontal muscle cuvette. A hook connected to force transducer was attached to another end of the muscle. Muscle preparations were electrically paced at 1 Hz with field stimulation via platinum electrodes. Modified Tyrode solution was used for superfusion of muscle preparations. The composition of the Tyrode solution was the following (mM): NaCl 135, MgCl2×6H2O 1, KCl 5, CaCl2×2H2O 2, NaHCO3 15, Na2HPO4×2H2O 1, and glucose 10. The Tyrode solution was gassed with carbogen (95% O2, 5% CO2) to set pH at 7.4. Experiments were carried out at 37° C. Acquisition and analysis of twitch tensions with Action Potential and Force Measurement System (ACFO v1.0, Fision Ltd, Finland).\nOuabain by blocking of sodium-potassium ATPase increases intracellular sodium which is changed for calcium via NCX. Increased intracellular calcium is leading to overload of sarcoplasmic reticulum (SR) and spontaneous calcium release from SR inducing delayed […] (DADs). Equivalence for DADs in force signal is aftercontractions (ACs) which are seen as spontaneous twitches after the pacing controlled twitch.\nThe antiarrhythmic effects of the title compounds of Examples 13, 33, 14a and 14b were examined.",
  "data": [
    {"molecule": "NCC(=O)Nc1ccc(Oc2ccc3c(c2)CCC(c2ccccc2)O3)nc1", "note": "(stereo not shown) [Example 33, 2-Amino-N-[6-(2-phenylchroman-6-yloxy)pyridin-3-yl]acetamide]", "values": [
      {"measurement": "inhibition of the emergency of ouabain-induced second aftercontraction", "result": "inhibit completely"}
    ]}
  ]
}
